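Growth conditions: 96-well plates. Treatment: test compound, 48 hours, 5 concentrations. Analysis: linear interpolation between bracketing concentrations; unreached endpoints set to highest concentration. The concentration for 50% growth inhibition is given as GI50.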 The source made the active and inactive calls. Cut-off read from the data, not from the text of the source: active = GI50 up to about 1.1 µM and inactive = higher.
Columns and labels:
Assay in all cases: DTP human tumour cell line panel, 48 h
DLD-1 = system: DLD-1
DMS-114 = system: DMS-114
DMS-273 = system: DMS-273
HOP-18 = system: HOP-18
KM-20L2 = system: KM-20L2
LXFL 529 = system: LXFL 529
RXF 631 = system: RXF 631
XF498 = system: XF498
M19-MEL = system: M19-MEL

SMILES | GI50 (DLD-1) | GI50 (DMS-114) | GI50 (DMS-273) | GI50 (HOP-18) | GI50 (KM-20L2) | GI50 (LXFL 529) | GI50 (RXF 631) | GI50 (XF498) | GI50 (M19-MEL)
C=CCn1c(=O)c(C(=O)NC(=O)OCC)cn(C2CCCCC2)c1=O | > 100 µM (inactive) | > 100 µM (inactive) | > 100 µM (inactive) | > 100 µM (inactive) | > 100 µM (inactive) | > 100 µM (inactive) | > 100 µM (inactive) | > 100 µM (inactive) | 
[O-][S+]1c2ccccc2N=C(c2cccs2)CC1c1ccccc1O (centres undefined) | 60.8 µM (inactive) | 37.2 µM (inactive) |  |  | > 100 µM (inactive) | > 100 µM (inactive) | > 100 µM (inactive) | 32.1 µM (inactive) | > 100 µM (inactive)
O=C(O)OC12CCCCCC1C(=O)C1CCCCC12 (centres undefined) |  | 82 µM (inactive) | 62.5 µM (inactive) | > 100 µM (inactive) | > 100 µM (inactive) | > 100 µM (inactive) |  | 82.6 µM (inactive) | > 100 µM (inactive)
O=C(CCN1CCCC1)CC(c1ccccc1)c1c(O)c2ccccc2oc1=O (centres undefined) | > 100 µM (inactive) | > 100 µM (inactive) | > 100 µM (inactive) |  | > 100 µM (inactive) | > 100 µM (inactive) |  | > 100 µM (inactive) | > 100 µM (inactive)
Cn1c(N)nc(=O)c2c1N(C1OC(CO)C(O)C1O)CN2Cc1ccccc1 (centres undefined) | > 100 µM (inactive) | > 100 µM (inactive) | > 100 µM (inactive) | > 100 µM (inactive) | > 100 µM (inactive) | > 100 µM (inactive) | > 100 µM (inactive) | > 100 µM (inactive) | > 100 µM (inactive)
COc1ccc(/C(Cl)=C(\C=O)c2ccc([N+](=O)[O-])cc2)cc1OC |  | 5.78 µM (inactive) | 11.8 µM (inactive) | 10.5 µM (inactive) | 12.2 µM (inactive) | 3.23 µM (inactive) | 12.4 µM (inactive) | 7.4 µM (inactive) | 11 µM (inactive)
COc1cccc2c1N[S@](=O)S2 | 72.9 µM (inactive) |  | > 100 µM (inactive) |  | > 100 µM (inactive) | 35.3 µM (inactive) | > 100 µM (inactive) | 50.8 µM (inactive) | 35.6 µM (inactive)
CCC/N=C/c1c(O)c(O)c(C(C)C)c2cc(C)c(-c3c(C)cc4c(C(C)C)c(O)c(O)c(/C=N/CCC)c4c3O)c(O)c12 |  | 1.71 µM (inactive) |  |  | 2.86 µM (inactive) | 3.73 µM (inactive) |  |  | 4.05 µM (inactive)
O=C(NCCCCCCNC(=O)n1cc(F)c(=O)[nH]c1=O)NCCCOCCOCCOCCOCCOCCOCCOCCOCCOCCOCCOCCOCCOCCOCCOCCOCCOCCOCCOCCOCCOCCCNC(=O)C(O)C(O)C(O)C(O)CO (centres undefined) | 9.33 µM (inactive) | > 100 µM (inactive) | 33.3 µM (inactive) | > 100 µM (inactive) | 22.5 µM (inactive) |  |  | 15.6 µM (inactive) | 61.7 µM (inactive)
O=C1C[C@@H]2[C@@H](CCC23CC3)N1 | > 100 µM (inactive) | > 100 µM (inactive) | > 100 µM (inactive) | > 100 µM (inactive) | > 100 µM (inactive) | > 100 µM (inactive) |  |  | > 100 µM (inactive)
Cc1ccc(C[P+]2(c3ccccc3)CCCCC2)cc1.[O-][Cl+3]([O-])([O-])[O-] | 84.3 µM (inactive) | 14.2 µM (inactive) | 35 µM (inactive) |  | 31.2 µM (inactive) | 14 µM (inactive) |  | < 0.01 µM (active) | 15.7 µM (inactive)
O=C1OC(c2ccccc2)=N/C1=C\c1cccc2ccccc12 | > 100 µM (inactive) | > 100 µM (inactive) | > 100 µM (inactive) | > 100 µM (inactive) |  | > 100 µM (inactive) |  | > 100 µM (inactive) | > 100 µM (inactive)
CCCCCCCCCCC(=O)CC(=O)c1c(O)cccc1O | 44.6 µM (inactive) | 26.1 µM (inactive) | 23.8 µM (inactive) | 18.9 µM (inactive) | 50.2 µM (inactive) | 36.3 µM (inactive) | 47.3 µM (inactive) | 19.5 µM (inactive) | 25.8 µM (inactive)
COc1ccc(Cc2c(=O)[nH]nc3ccccc23)cc1 | > 100 µM (inactive) | > 100 µM (inactive) | > 100 µM (inactive) | > 100 µM (inactive) | > 100 µM (inactive) |  | > 100 µM (inactive) | 33 µM (inactive) | > 100 µM (inactive)
NC(=O)C1C(=O)Oc2cccnc21 (centres undefined) | > 100 µM (inactive) | > 100 µM (inactive) | > 100 µM (inactive) | > 100 µM (inactive) | > 100 µM (inactive) |  |  | > 100 µM (inactive) | > 100 µM (inactive)

Source: ChEMBL document CHEMBL1201862, “PubChem BioAssay data set” (2004)
